Results published in PubChem BioAssay (NCI).
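Interpolation was linear, between the two tested concentrations surrounding the appropriate level; five concentrations were tested over 48 hours in 96-well plates. Here, GI50 denotes the concentration required for 50% inhibition of growth. TGI: total growth inhibition.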

Assays:
Test in all cases: NCI tumour cell line growth inhibition, 48 h
NCI-H522 lung = tested on: NCI-H522 lung
HOP-92 NSCLC = tested on: HOP-92 NSCLC
PC-3 prostate = tested on: PC-3 prostate
OVCAR-5 ovarian = tested on: OVCAR-5 ovarian
SNB-75 CNS = tested on: SNB-75 CNS
DU-145 prostate = tested on: DU-145 prostate
OVCAR-3 ovarian = tested on: OVCAR-3 ovarian
NCI-H460 lung = tested on: NCI-H460 lung
UO-31 renal = tested on: UO-31 renal
IGROV1 ovarian = tested on: IGROV1 ovarian

Structure (SMILES) | GI50 (NCI-H522 lung) [µM] | TGI (NCI-H522 lung) [µM] | GI50 (HOP-92 NSCLC) [µM] | TGI (HOP-92 NSCLC) [µM] | GI50 (PC-3 prostate) [µM] | TGI (PC-3 prostate) [µM] | GI50 (OVCAR-5 ovarian) [µM] | TGI (OVCAR-5 ovarian) [µM] | GI50 (SNB-75 CNS) [µM] | TGI (SNB-75 CNS) [µM] | GI50 (DU-145 prostate) [µM] | TGI (DU-145 prostate) [µM] | GI50 (OVCAR-3 ovarian) [µM] | TGI (OVCAR-3 ovarian) [µM] | GI50 (NCI-H460 lung) [µM] | TGI (NCI-H460 lung) [µM] | GI50 (UO-31 renal) [µM] | TGI (UO-31 renal) [µM] | GI50 (IGROV1 ovarian) [µM] | TGI (IGROV1 ovarian) [µM]
O=C(CCN1CCN(c2cnc3ccccc3n2)CC1)c1csc2ccccc12 | 18.4 | 42.8 | 18.9 | 49.1 | 28.1 | > 100 | > 100 | > 100 | 24.2 | 91.6 | 29.5 | > 100 | 25 | 61.5 | > 100 | > 100 | 25.1 | 77.5 |  | 
COc1ccc(-c2nn(-c3cccc(Cl)c3)cc2C2CC(c3ccccc3)=NN2C(C)=O)cc1 (configuration not stated) | 32.6 | > 100 |  |  | 6.8 | > 100 | > 100 | > 100 | 1.76 | 5.99 | 5.25 | > 100 | 5.42 | 45.1 | 4.17 | > 100 | 6.36 | > 100 | 13.7 | > 100
C[C@@H]1CC[C@H]2C(COCC3=C(C(F)(F)F)O[C@@H]4O[C@@]5(C)CC[C@H]6[C@H](C)CC[C@@H]3[C@@]46OO5)=C(C(F)(F)F)O[C@@H]3O[C@@]4(C)CC[C@@H]1[C@]32OO4 | < 0.01 | 0.073 |  |  | < 0.01 | > 100 | 0.0101 | > 100 |  |  |  |  | 0.0365 | > 100 | < 0.01 | > 100 | < 0.01 | > 100 |  | > 100
O=C1NC2(CCCC2)C(=O)C12CCCC2 |  | > 100 |  | > 100 |  |  |  | > 100 |  | > 100 |  |  |  | > 100 |  | > 100 |  | > 100 |  | > 100
C#CCNC(=O)NC(CCCNC(=O)OCc1ccccc1)C(=O)OCc1ccccc1 (configuration not stated) |  | 62.7 |  | > 100 |  |  |  | > 100 |  | > 100 |  |  |  | > 100 |  | > 100 |  | > 100 |  | > 100
Cc1ccccc1C(C#N)C(=O)C(=O)Nc1nc([N+](=O)[O-])cs1 (configuration not stated) |  | > 100 |  |  |  |  |  | > 100 |  | > 100 |  |  |  | > 100 |  | > 100 |  | > 100 |  | > 100
CC(=O)[CH-]C(=O)c1ccccc1.CC(=O)[CH-]C(=O)c1ccccc1.CCCCCCCCCCCCCCCCCC(=O)[O-].CCCCCCCCCCCCCCCCCC(=O)[O-].[Ti+4] | 23.1 | 62.4 | 17 | 33.9 |  |  | 36.7 | > 100 | 11.7 | 25.5 |  |  | 18.9 | 38 | 30.7 | 95.7 | 13.8 | 26.7 | 34.9 | > 100
O=C(Nc1cccc(-n2ccc3c(NC(=O)c4ccccc4)nccc32)c1)c1cccc(C(F)(F)F)c1 | 0.0199 | 0.0759 | 0.281 | 8.07 | 0.0434 | > 100 | 0.239 | > 100 |  |  | 0.0363 | 0.168 | 0.0205 | 0.0463 | 0.0354 | 1.22 | 0.312 | 16 | 0.0844 | > 46.9
CNC(=O)c1ccccc1CC1(O)c2ccccc2Oc2ccccc21 | 8.39 | 37.3 | 7.52 | 44.4 | 13.1 | 99.3 | 29.1 | > 100 | 12.4 | 39 | 22 | 56.5 |  |  | 25 | 82.6 | 29.4 | > 100 | 26.4 | > 100
C1COCCN1.C1COCCN1.N.N.[Cl-].[Pt+2] | > 100 | > 100 |  |  |  |  | > 100 | > 100 | > 100 | > 100 |  |  | > 100 | > 100 | > 100 | > 100 | > 100 | > 100 | > 100 | > 100
CC(=O)c1ccc(Nc2cc(-c3ccccc3)nc3c(O)cccc23)cc1 | 2.98 | 9.64 | 13.7 | 50.5 | 8.62 | > 100 | 54.5 | > 100 | 17.9 | 50.5 | 21.8 | > 100 | > 100 | > 100 |  |  | 14 | 53.9 | 2.57 | 13.4
O=[N+]([O-])[C@@H]1C2C=CC(C2)[C@H]1Cl (some centres not stated) |  | > 100 |  | > 100 |  |  |  | > 100 |  | > 100 |  |  |  | > 100 |  | > 100 |  | > 100 |  | > 100
O=C(/C=C/c1ccc(Cl)cc1)c1ccc(Cl)cc1Cl | 8.15 | 16.8 | 9.39 | 19.4 | 11.2 | 31.7 | 9.15 | 18 |  |  | 7.72 | 15.7 | 9.19 | 18.4 | 10.4 | 24.8 | 7.62 | 14.4 | 0.987 | 14.6
C=CC1=CSNN1 |  | > 100 |  | > 100 |  |  |  | > 100 |  | > 100 |  |  |  | > 100 |  | > 100 |  | > 100 |  | > 100
CC(=O)OC1=C2CC3(C)OC(=O)CC(C)(C)C3=CC=C2C=C(C(C)C)C1=O (configuration not stated) |  | 0.41 |  | 0.499 |  |  |  | 2.24 |  | 1.99 |  |  |  | 2.41 |  | 3.31 |  | 3.12 |  | 2.46
C=CCSC[C@H](NC(=O)COc1ccccc1)C(=O)NC(C(=O)OCc1ccc([N+](=O)[O-])cc1)=C(C)C |  | > 100 |  |  |  |  |  |  |  | > 100 |  |  |  | > 100 |  | > 100 |  | > 100 |  | > 100
CCOC(=O)CC1=Nc2ccccc2SC1 |  | > 100 |  | > 100 |  |  |  | > 100 |  | > 100 |  |  |  | > 100 |  | > 100 |  | > 100 |  | > 100
